Experimental data reported in patent publication US9446039B2, “Aminoheteroaryl compounds as MTH1 inhibitors” (CEMM—FORSCHUNGSZENTRUM FÜR MOLEKULARE MEDIZIN GMBH, priority 2012, dated 2016).
Entries after “also recorded” stand apart in the source; their conditions may differ.

Assays:
SW480 cells [1] = test: Colony formation assay using SW480 cells; format: cell-based, human; details: K-Ras-mutated SW480 colon carcinoma
Description: Colony Formation Assay Using SW480 Cells. One day before treatment, 10^4 cells were seeded per well in 6-well plates and incubated for 24 h. The next day DMSO (equal to highest amount of compound dilution, maximum 0.2%) or compounds in increasing concentrations were added and cells incubated at 37° C., 5% CO2, for 7-10 days. After washing with PBS (Gibco), cells were fixed with ice-cold methanol, stained with crystal violet solution (0.5% in 25% methanol) and left to dry overnight. For quantification of results, UV absorbance of crystal violet was determined at 595 nm after solubilisation by 70% ethanol. Data were analysed using non-linear regression analysis utilizing the GraphPad Prism software.

[2] = test system: PANC1 pancreatic cancer cells; test: Colony formation assay using PANC1 cells; format: cell-based, human; details: K-Ras mutated PANC1
BJ skin fibroblasts = test: Colony formation assay with untransformed BJ skin fibroblasts; format: cell-based, human; details: 10 days incubation
[3] = test system: isogenic BJ fibroblast cell lines; test: Colony formation assays in isogenic BJ fibroblast cell lines (anti-cancer specificity); format: cell-based; details: hTERT+SV40T, hTERT+SV40T+KRAS V12
Text: FIG. 28: Anti-cancer specificity. […] As indicated, the investigated cell line panel comprised non-transformed (“wildtype”) cells, cells immortalized with telomerase (hTERT), cells transformed with hTERT and SV40 Large T antigen (SV40T), and cells transformed with hTERT, SV40T, and the KRAS mutant V12.
The investigated cell line panel comprised non-transformed (“wildtype”) cells, cells immortalized with telomerase (hTERT), cells transformed with hTERT and SV40 Large T antigen (SV40T), and cells transformed with hTERT, SV40T, and the KRAS mutant V12 (FIG. 28).

SW480 cells [4] = test: Alkaline comet assay (DNA single strand breaks) in SW480 cells; format: cell-based, human; details: 6 days treatment, alkali conditions
Description: Comet Assay. Cells were treated with compounds for 6 days, upon which DNA single-strand breaks were assayed using the comet assay under alkali conditions. […] Cells were washed twice with PBS, harvested using a rubber scraper, pelleted by centrifugation, resuspended in PBS and mixed with 1% low-gelling-temperature agarose (Sigma type VII) that was maintained at 37° C. The mixture of cells and agarose was layered onto frosted glass slides pre-coated with 0.5% agarose and slides were placed on ice to gel. Slides were maintained in the dark for all subsequent steps. […] After electrophoresis for 25 minutes at 25 volts, slides were placed at 4° C. over-night, in the dark. The following day, slides were neutralized with 0.4 M Tris-HCl pH 7.0 for 1 hour and stained with SYBR Gold (Invitrogen, diluted 1:10,000 in distilled water) for 30 minutes. Comet tail moments (defined as the average distance migrated by the DNA multiplied by the fraction of DNA in the comet tail) were scored using the CellProfiler cell image analysis software.

SW480 cells [5] = test: Indirect immunofluorescence for 53BP1 foci in SW480 cells; format: cell-based, human; details: 6 days treatment
Description: Indirect Immunofluorescence. Cells were treated with compounds for 6 days, following which they were adhered to glass coverslips, washed with PBS and then fixed with 3% paraformaldehyde in PBS for 20 minutes. Fixed cells were rinsed with PBS and permebealised with 0.5% Triton-X-100 for 5 minutes. PBS washed slides were incubated for 1 hour with 10% FCS and 0.1% Triton-X-100 in PBS following which cells were stained with an anti-53BP1 monoclonal antibody (H-300, Santa Cruz, diluted 1:600), in 10% FCS and 0.1% Triton-X-100 in PBS. […] After a PBS wash, DNA was counterstained with DAPI (Sigma-Aldrich) for 10 minutes and the coverslips were mounted in Fluorescent Mounting Medium (Dako). Images were analysed with a Zeiss fluorescent microscope at 63 times magnification with supporting software.

SW480 cells [6] = test: ATM phosphorylation in SW480 cells; format: cell-based, human
SW480 cells [7] = test: SW480 mouse xenograft study; format: in vivo, SCID mice; details: 25 mg/kg s.c. once daily, 35 days
Description: (§1) Xenograft Study. SCID mice (female, 5-6 weeks, Scanbur, Germany) were s.c. injected with 1×10^6 SW480 cells together with a matrix gel (1:1) in the sacral area. Treatment was initiated one day after cell inoculation. Vehicle or MTH1 inhibitor was administered subcutaneously once daily at 25 mg/kg for 35 days. MTH1 inhibitor was diluted in 1% DMSO, 10% ethanol, 10% cremaphore, 10% Tween 80, 69% PBS. Tumour size was measured twice weekly and body weight once weekly. At termination, a gross postmortem inspection was performed; blood was collected for haematological parameters and ASAT, ALAT, creatinine measurements and tumours collected in paraformaldehyde (4%) and later paraffin inbedded for immunohistology analysis. All experiments involving animals followed protocols approved by Stockholms Norra djurfOrsoksetiska namnd (laboratory animal ethical committee Stockholm). All animals were acclimatised for one week, and had free access to water and food during the experiment. Animals were under a 12-hour lightcycle, and temperature and humidity according to laboratory animal guidelines and regulations.

[8] = Tolerability in the xenograft study: hematology, liver/heart/kidney parameters, body weight; format: in vivo, SCID mice
Description: as §1, with “MTH1 inhibitor was diluted in 1% DMSO, 10% ethanol, 10% cremaphore, 10% Tween 80, 69% PBS.” left out

[9] = test system: SW480 colon carcinoma cells lysate proteins; format: binding, human; details: immobilized aminopropyl derivative of (S)-crizotinib
MCF-7 = details: 10 μM, versus DMSO-treated cells
MDA-MB-231 = details: 10 μM, versus DMSO-treated cells; KRAS G13D
BJ fibroblasts = test: 8-oxo-guanine staining in BJ cells; details: fixed 72 h later
[10] = test system: HCT116 colon carcinoma cells; test: HCT116 isogenic cell line system (p53/p21/MLH1 status); details: HCT116 isogenic lines
[11] = 25 mg/kg s.c. 35 days, EDTA plasma, mean ± SD
[12] = 25 mg/kg s.c. 35 days, mean ± SD

C[C@H](Oc1cc(-c2cnn(C3CCNCC3)c2)cnc1N)c1c(Cl)ccc(F)c1Cl [(S)-enantiomer of crizotinib, (S)-3-[1-(2,6-dichloro-3-fluoro-phenyl)-ethoxy]-5-(1-piperidin-4-yl-1H-pyrazol-4-yl)-pyridin-2-ylamine]
colony formation / growth of SW480 cells (SW480 cells [1]): efficiently inhibited colony formation; also recorded: considerably more effective | colony formation of PANC1 cells [2]: efficiently inhibited colony formation | toxicity on non-transformed BJ skin fibroblasts (colony formation) (BJ skin fibroblasts): does not exhibit any increased unspecific cytotoxicity | toxicity to transformed versus wildtype / hTERT-immortalized BJ cells [3]: more toxic to transformed cells than to wildtype cells | tail moment in the comet assay (SW480 cells [4]): yielded a significant tail moment | number of 53BP1 foci (SW480 cells [5]): increase the number of 53BP1 foci | ATM phosphorylation (SW480 cells [6]): increase of ATM phosphorylation | reduction in tumour volume (SW480 cells [7]): more than 50% | P-ALAT [8, 11]: 0.26 ± 0.07 mCat/l | p-ASAT [8, 11]: 1.10 ± 0.32 mCat/l | p-Creatinine [8, 11]: 18.6 ± 4.24 µM | HBG [8, 12]: 134 ± 6.25 g/L | Lymphocytes [8, 12]: 0.23 ± 0.06 10^9/l | MCH [8, 12]: 14.07 ± 0.30 pg | MCHC [8, 12]: 327 ± 4.90 g/L | MCV [8, 12]: 43.02 ± 1.07 fL | Monocytes [8, 12]: 0.16 ± 0.11 10^9/l | Neutrophils [8, 12]: 1.50 ± 0.51 10^9/l | RBC [8, 12]: 9.51 ± 0.37 10^12/l | Thrombocytes [8, 12]: 828 ± 160 10^9/l | WBC [8, 12]: 1.90 ± 0.64 10^9/l | tolerability ([8]; 25 mg/kg s.c. once daily, 35 days): well-tolerated | change in haematological parameters ([8]; 25 mg/kg s.c., 35 days, versus vehicle): no significant change | main cellular target in SW480 cells [9]: MTH1 (gene name NUDT1) is the main target | growth of MCF-7 in colony formation assay (MCF-7): significantly decreased the growth | growth of MDA-MB-231 in colony formation assay (MDA-MB-231): significantly decreased the growth | staining of anti-8-oxo-guanine antibody (BJ fibroblasts): increased staining | effect of loss of p21 on sensitivity of HCT116 cells [10]: seems to increase the sensitivity | effect of p53 status and functional MLH1 on activity in HCT116 cells [10]: do not affect the activity
